Measured values from US11306083B2, “Amide substituted imidazo[4,5-C]quinoline compounds with a branched chain linking group for use as an immune response modifier” (3M INNOVATIVE PROPERTIES COMPANY, priority 2017, dated 2022).

How the values were obtained:
Format in all cases: cell-based
Conditions in all cases: 21-24 hrs, lowest concentration giving cytokine at least 2× negative control, tested 0.01-30 micromolar
[1] = test system: IFN-alpha induction in human peripheral blood mononuclear cells (PBMC); test: Cytokine induction in human cells (PBMC): IFN-alpha by ELISA
Description: (§1) Cytokine Induction in Human Cells
(§2) Whole blood was obtained from healthy human donors and collected by venipuncture into vacutainer tubes or syringes containing EDTA. Human peripheral blood mononuclear cells (PBMC) were purified from the whole blood by density gradient centrifugation. Histopaque 1077 (15 mL, Sigma, St. Louis, Mo.) was transferred to 6×50 mL sterile polypropylene conical tubes. The Histopaque was overlayed with 15-25 mL of blood diluted 1:2 in Hank's Balanced Salts Solution (HBSS) (Gibco, Life Technology, Grand Island N.Y.). The tubes were then centrifuged at 1370 rpm for 30 minutes at 20° C., with no brake (400×g, GH 3.8A Rotor).
(§3) The interface (buffy coat) containing the PBMC was collected and placed in a new sterile 50 mL conical polypropylene centrifuge tube. The PBMC were mixed with an equal volume of HBSS (about 20 mL from the interface and about 20 mL of HBSS), and then centrifuged at 1090 rpm, 10 min, 20° C., with brake (270×g, GH 3.8A Rotor). After completing centrifugation, the cells were resuspended in 2-3 mL ACK Red blood cell lysis buffer (ammonium chloride potassium solution, Gibco, Life Technology) and incubated for 2-5 minutes at 20° C. […]
(§4) The number of viable cells was determined by counting with a Miltenyi FACS instrument (Miltenyi Biotec Inc., San Diego, Calif.) or by using a hemacytometer. […] Ten microliters of the diluted cells were then applied to the hemacytometer, and the number of viable PBMC were determined by microscopy. […]
(§5) IFN-alpha cytokine levels (pg/mL) were measured by ELISA (human IFN-α, pan specific, Mabtech, Cincinnati, Ohio). IFN-gamma and TNF-alpha levels (pg/mL) were measured by multiplex bead assay (magnetic beads, R & D Systems Minneapolis, Minn.) according to the manufacturer's instructions.
(§6) Specifically, the minimum effective concentration of each compound (micromolar) was determined as the lowest concentration of the compound that induced a measured cytokine response at a level ([…]) that was at least 2× greater than that observed with the negative control wells.

[2] = test system: IFN-gamma induction in human peripheral blood mononuclear cells (PBMC); test: Cytokine induction in human cells (PBMC): IFN-gamma by multiplex bead assay
Description: as §1, §2, §3, §4, §5, §6

[3] = test system: TNF-alpha induction in human peripheral blood mononuclear cells (PBMC); test: Cytokine induction in human cells (PBMC): TNF-alpha by multiplex bead assay
Description: as §1, §2, §3, §4, §5, §6

| SMILES | MEC to Induce Cytokine IFN-alpha [1] [µM] | MEC to Induce Cytokine IFN-gamma [2] [µM] | MEC to Induce Cytokine TNF-alpha [3] [µM] |
| --- | --- | --- | --- |
| CCCCCCCCCCCCCC(=O)NCCC[C@@H](COCC)n1cnc2c(N)nc3ccccc3c21 [Example 2, N-[(4S)-4-(4-aminoimidazo[4,5-c]quinolin-1-yl)-5-ethoxy-pentyl]tetradecanamide] | ≤0.01 | 0.04 | ≤0.01 |
| CCCCCCCCCCCCCCCCCC(=O)NCCC[C@@H](COCC)n1cnc2c(N)nc3ccccc3c21 [Example 1, N-[(4S)-4-(4-aminoimidazo[4,5-c]quinolin-1-yl)-5-ethoxy-pentyl]octadecanamide] | ≤0.01 | 1.1 | ≤0.01 |
| CCCCCCCCCC(=O)NCCC[C@@H](COCC)n1cnc2c(N)nc3ccccc3c21 [Example 3, N-[(4S)-4-(4-aminoimidazo[4,5-c]quinolin-1-yl)-5-ethoxy-pentyl]decanamide] | ≤0.01 | 0.04 | ≤0.01 |
